# In US5945508A, “Substance P treatment for immunostimulation” (priority 1997, dated 1999):
# Legend:
# [1] = tested on: lymphocyte subpopulations; assay: Flow cytometric analyses (FACS); format: in vivo, C57B16 mice
# Experimental: (§1) At 24 hours after the last exposure, the animals were sacrificed and the effects of exposure on the immune system examined. Immune organs (spleen, thymus, blood, lymph nodes and bone marrow) were recovered and analyzed for effects on organ weight, total cell numbers, immune cell populations (by differentials), and lymphocyte subpopulations (by flow cytometry). Assays were also performed to examine the effects of exposure on immune function. […] Similar effects on immune cell subpopulations were also observed in lymph nodes. In the thymus it appeared that the immature CD4^+ CD8^+ cells were differentially lost due to exposure. […] However, these effects are prevented or ameliorated by treatment of the animals with Substance P.
# One- and two-color FACS analyses are performed using a Becton-Dickinson FACStar Plus flow cytometer. Cells are stained with the indicated monoclonal antibodies according to standard procedures (Harris et al., id). Cells alone and cells reacted with conjugated isotype control, irrelevant mAbs are used as controls. Data is presented as the percentage of cells staining positive for each individual mAb.
# immune system organs = assay: Organ weight and total cell recovery; format: in vivo, C57B16 mice; parameters: Spleen Cell Number / Thymus Cell Number / LN Cell Number / BM Cell Number: scale not given here; Spleen Weight / Thymus Weight: unit not given here
# Experimental: as §1
# For each of the immune system organs (spleen, lymph nodes and thymus) the wet weight is determined after removal using a microbalance. After processing of the organs into single cell suspensions the cell numbers and viabilities are determined using trypan blue staining. Histochemical differentials are performed at this time. Cell numbers and viabilities are again determined after centrifugation of the cell suspensions through density gradients to obtain mononuclear cells.
# [2] = JP-8 1000 mg/m^3 + SP, nSP (1 nM), CP or RP
compound,measurement,setting,value
"COc1ccccc1CN[C@H]1C2CCN(CC2)[C@H]1C(c1ccccc1)c1ccccc1 [CP, reference compound]",BM CD3 positive cells,[1]; [2],14%
same,BM CD4 positive cells,[1]; [2],7%
same,BM CD8 positive cells,[1]; [2],3%
same,BM CD45 positive cells,[1]; [2],41%
same,BM MAC1 positive cells,[1]; [2],26%
same,LN CD3 positive cells,[1]; [2],95%
same,LN CD4 positive cells,[1]; [2],35%
same,LN CD8 positive cells,[1]; [2],23%
same,PBL CD3 positive cells,[1]; [2],50%
same,PBL CD4 positive cells,[1]; [2],20%
same,PBL CD8 positive cells,[1]; [2],15%
same,PBL CD45 positive cells,[1]; [2],27%
same,PBL MAC1 positive cells,[1]; [2],6%
same,Spleen CD3 positive cells,[1]; [2],34%
same,Spleen CD4 positive cells,[1]; [2],16%
same,Spleen CD8 positive cells,[1]; [2],9%
same,Spleen CD45 positive cells,[1]; [2],26%
same,Spleen MAC1 positive cells,[1]; [2],10%
same,Thymus CD3 positive cells,[1]; [2],17%
same,Thymus DN cells,[1]; [2],12%
same,Thymus DP cells,[1]; [2],65%
same,Thymus SP4 cells,[1]; [2],17%
same,Thymus SP8 cells,[1]; [2],7%
same,BM CD3 positive cells,[1]; dose 0 (no JP-8) + SP or CP,16%
same,BM CD4 positive cells,[1]; dose 0 (no JP-8) + SP or CP,9%
same,BM CD8 positive cells,[1]; dose 0 (no JP-8) + SP or CP,7%
same,BM CD45 positive cells,[1]; dose 0 (no JP-8) + SP or CP,27%
same,BM MAC1 positive cells,[1]; dose 0 (no JP-8) + SP or CP,33%
same,LN CD3 positive cells,[1]; dose 0 (no JP-8) + SP or CP,49%
same,LN CD4 positive cells,[1]; dose 0 (no JP-8) + SP or CP,25%
same,LN CD8 positive cells,[1]; dose 0 (no JP-8) + SP or CP,12%
same,LN CD45 positive cells,[1]; dose 0 (no JP-8) + SP or CP,15%
same,LN MAC1 positive cells,[1]; dose 0 (no JP-8) + SP or CP,1%
same,PBL CD3 positive cells,[1]; dose 0 (no JP-8) + SP or CP,72%
same,PBL CD4 positive cells,[1]; dose 0 (no JP-8) + SP or CP,29%
same,PBL CD8 positive cells,[1]; dose 0 (no JP-8) + SP or CP,13%
same,PBL CD45 positive cells,[1]; dose 0 (no JP-8) + SP or CP,12%
same,PBL MAC1 positive cells,[1]; dose 0 (no JP-8) + SP or CP,7%
same,Spleen CD3 positive cells,[1]; dose 0 (no JP-8) + SP or CP,32%
same,Spleen CD4 positive cells,[1]; dose 0 (no JP-8) + SP or CP,21%
same,Spleen CD8 positive cells,[1]; dose 0 (no JP-8) + SP or CP,7%
same,Spleen CD45 positive cells,[1]; dose 0 (no JP-8) + SP or CP,24%
same,Spleen MAC1 positive cells,[1]; dose 0 (no JP-8) + SP or CP,3%
same,Thymus CD3 positive cells,[1]; dose 0 (no JP-8) + SP or CP,18%
same,Thymus DN cells,[1]; dose 0 (no JP-8) + SP or CP,13%
same,Thymus DP cells,[1]; dose 0 (no JP-8) + SP or CP,75%
same,Thymus SP4 cells,[1]; dose 0 (no JP-8) + SP or CP,12%
same,Thymus SP8 cells,[1]; dose 0 (no JP-8) + SP or CP,3%
same,BM Cell Number,immune system organs; [2],22
same,LN Cell Number,immune system organs; [2],7.1
same,Spleen Cell Number,immune system organs; [2],7
same,Spleen Weight,immune system organs; [2],0.16
same,Thymus Cell Number,immune system organs; [2],75
same,Thymus Weight,immune system organs; [2],0.12
same,BM Cell Number,immune system organs; dose 0 (no JP-8) + SP or CP,29
same,LN Cell Number,immune system organs; dose 0 (no JP-8) + SP or CP,9.8
same,Spleen Cell Number,immune system organs; dose 0 (no JP-8) + SP or CP,16
same,Spleen Weight,immune system organs; dose 0 (no JP-8) + SP or CP,0.12
same,Thymus Cell Number,immune system organs; dose 0 (no JP-8) + SP or CP,50
same,Thymus Weight,immune system organs; dose 0 (no JP-8) + SP or CP,0.12
"COc1ccccc1CC(=N)N1C[C@@H]2C(=O)CCC(c3ccccc3)(c3ccccc3)[C@@H]2C1 [RP, reference compound]",BM CD3 positive cells,[1]; [2],12%
same,BM CD4 positive cells,[1]; [2],6%
same,BM CD8 positive cells,[1]; [2],5%
same,BM CD45 positive cells,[1]; [2],42%
same,BM MAC1 positive cells,[1]; [2],10%
same,LN CD3 positive cells,[1]; [2],96%
same,LN CD4 positive cells,[1]; [2],41%
same,LN CD8 positive cells,[1]; [2],29%
same,LN CD45 positive cells,[1]; [2],18%
same,LN MAC1 positive cells,[1]; [2],1%
same,PBL CD3 positive cells,[1]; [2],71%
same,PBL CD4 positive cells,[1]; [2],18%
same,PBL CD8 positive cells,[1]; [2],10%
same,PBL CD45 positive cells,[1]; [2],38%
same,PBL MAC1 positive cells,[1]; [2],9%
same,Spleen CD3 positive cells,[1]; [2],47%
same,Spleen CD4 positive cells,[1]; [2],16%
same,Spleen CD8 positive cells,[1]; [2],5%
same,Spleen CD45 positive cells,[1]; [2],39%
same,Spleen MAC1 positive cells,[1]; [2],1%
same,Thymus CD3 positive cells,[1]; [2],16%
same,Thymus DN cells,[1]; [2],10%
same,Thymus DP cells,[1]; [2],70%
same,Thymus SP4 cells,[1]; [2],12%
same,Thymus SP8 cells,[1]; [2],8%
same,BM Cell Number,immune system organs; [2],27
same,LN Cell Number,immune system organs; [2],6.8
same,Spleen Cell Number,immune system organs; [2],37
same,Spleen Weight,immune system organs; [2],0.10
same,Thymus Cell Number,immune system organs; [2],72
same,Thymus Weight,immune system organs; [2],0.03
nSP: 1 nanomolar substance P,BM CD3 positive cells,[1]; [2],13%
same,BM CD4 positive cells,[1]; [2],10%
same,BM CD8 positive cells,[1]; [2],3%
same,BM CD45 positive cells,[1]; [2],43%
same,BM MAC1 positive cells,[1]; [2],16%
same,LN CD3 positive cells,[1]; [2],95%
same,LN CD4 positive cells,[1]; [2],42%
same,LN CD8 positive cells,[1]; [2],25%
same,LN CD45 positive cells,[1]; [2],23%
same,LN MAC1 positive cells,[1]; [2],0%
same,PBL CD3 positive cells,[1]; [2],78%
same,PBL CD4 positive cells,[1]; [2],25%
same,PBL CD8 positive cells,[1]; [2],8%
same,PBL CD45 positive cells,[1]; [2],29%
same,PBL MAC1 positive cells,[1]; [2],2%
same,Spleen CD3 positive cells,[1]; [2],60%
same,Spleen CD4 positive cells,[1]; [2],15%
same,Spleen CD8 positive cells,[1]; [2],5%
same,Spleen CD45 positive cells,[1]; [2],41%
same,Spleen MAC1 positive cells,[1]; [2],1%
same,Thymus CD3 positive cells,[1]; [2],25%
same,Thymus DN cells,[1]; [2],7%
same,Thymus DP cells,[1]; [2],69%
same,Thymus SP4 cells,[1]; [2],16%
same,Thymus SP8 cells,[1]; [2],7%
same,BM Cell Number,immune system organs; [2],31
same,LN Cell Number,immune system organs; [2],10.8
same,Spleen Cell Number,immune system organs; [2],58
same,Spleen Weight,immune system organs; [2],0.11
same,Thymus Cell Number,immune system organs; [2],78
same,Thymus Weight,immune system organs; [2],0.04
